“Also recorded” adds a separate entry of the source. Like-named read-outs stand apart in the source and are kept apart here.
Tests used:
[1] = cited from earlier work
[2] = cited from earlier work; remark: listed apart in the source
[3] = in vitro; details: human, plasma
[4] = Enzymolysis kinetics experiment of compounds in plasma; details: human plasma, up to 120 min
[5] = human, 97.6 µM
[6] = High temperature stability study of compounds (60° C.); type: physicochemical; details: in the dark; for Ketorolac (%): related substance
Experimental: Test protocol: the compounds prepared in the present disclosure were placed in a colorless and transparent vial, placed in the dark at a high temperature (60° C.), and were sampled for day 0, day 5 and day 10, respectively, and the purity of the compounds and the change of the related substance (ketorolac) were determined.

[7] = By-product toxicity test (metabolic byproducts in the human body); details: for Metabolic by-products in human body: by the metabolic pathways of the compounds in the human body; for Toxicity: toxicity of the metabolic by-products in human body
[8] = oral administration and intramuscular injection

Structure (SMILES)	half-life at 97.6 µM [3]	Content of ketorolac % ([5]; 0 min)	Content of the compound % ([5]; 0 min)	Content of ketorolac % ([5]; 15 min)	Content of the compound % ([5]; 15 min)	Content of ketorolac % ([5]; 30 min)	Content of the compound % ([5]; 30 min)	Content of ketorolac % ([5]; 60 min)	Content of the compound % ([5]; 60 min)	Content of ketorolac % ([5]; 120 min)	Content of the compound % ([5]; 120 min)	Total main peak purity (%) ([6]; Day 0)	Total main peak purity (%) ([6]; Day 5)	Total main peak purity (%) ([6]; Day 10)	Ketorolac (%) ([6]; Day 0)	Ketorolac (%) ([6]; Day 5)	Ketorolac (%) ([6]; Day 10)	Toxicity [7]	other results
O=C(c1ccccc1)c1ccc2n1CCC2C(=O)O (racemic) [Ketorolac, (±)-5-benzoyl-2,3-dihydro-1H-pyrrolizine-1-carboxylic acid]																			analgesic activity relative to aspirin ([1]; times that of aspirin): 800 times; analgesic activity relative to indomethacin ([1]; times that of indomethacin): 60 times; analgesic activity relative to morphine ([1]; times that of morphine): 0.4 times; elimination half-life ([2]; elderly patients): 360 to 420 min; binding rate to plasma protein ([2]; in vivo): more than 99%; distribution volume ([2]; in vivo): 0.1 to 0.3 L/kg; elimination half-life ([2]; in vivo): 240 to 360 min; original drug and metabolites excreted with the urine ([2]; in vivo): about 90%; total clearance rate ([2]; in vivo): 0.5 mL/min/kg; effective treatment plasma concentration [2, 8]: 0.3 to 5 µg/mL; peak concentration time of the plasma concentration [2, 8]: 20 to 60 min; elimination half-life ([2]; renal insufficiency patients): 540 to 600 min
CC(=O)OC(C)OC(=O)C(C)c1ccc(-c2ccccc2)c(F)c1 (stereo not drawn) [FPA, flurbiprofen axetil, reference compound]	40.8 min																		degradation / metabolic rate in human plasma (in words) [4]: could be metabolized faster
CC(C)OC(=O)OC(C)OC(=O)C1CCn2c(C(=O)c3ccccc3)ccc21 (stereo not drawn) [N2]	38.6 min	1.050 ± 0.079%	98.950 ± 3.765%	8.860 ± 0.426%	88.103 ± 2.289%	20.993 ± 0.561%	72.813 ± 2.707%	34.590 ± 1.381%	47.510 ± 1.739%	59.790 ± 2.019%	12.573 ± 0.260%	95.58%	95.21%	94.82%	0.03%	0.04%	0.05%	low toxicity of byproducts; also recorded: relatively low	Metabolic by-products in human body [7]: Acetaldehyde and isopropyl alcohol
CCC(=O)OC(CC)OC(=O)C1CCn2c(C(=O)c3ccccc3)ccc21 (stereo not drawn) [N8]	16.9 min	0%	100 ± 1.782%	19.140 ± 1.467%	69.713 ± 6.985%	36.277 ± 3.301%	42.467 ± 2.983%	53.130 ± 2.171%	8.777 ± 0.560%	65.997 ± 3.446%	0%	93.15%	93.30%	92.34%	0.18%	0.42%	0.96%	low toxicity of byproducts; also recorded: relatively low	
CCOC(=O)OC(C)OC(=O)C1CCn2c(C(=O)c3ccccc3)ccc21 (stereo not drawn) [N12]	14.8 min	2.033 ± 0.342%	97.967 ± 6.878%	34.203 ± 3.165%	56.277 ± 3.890%	53.297 ± 1.296%	25.590 ± 1.131%	76.623 ± 10.483%	5.997 ± 0.976%	87.973 ± 4.045%	0%	93.84%	93.59%	93.36%	0.03%	0.07%	0.07%	low toxicity of byproducts; also recorded: relatively low	Metabolic by-products in human body [7]: Acetaldehyde and acetic acid
CCC(OC(=O)OC(C)C)OC(=O)C1CCn2c(C(=O)c3ccccc3)ccc21 (stereo not drawn) [N16]	31.6 min	0%	100 ± 4.001%	9.847 ± 2.479%	82.710 ± 1.909%	28.653 ± 0.277%	65.987 ± 0.506%	56.793 ± 2.096%	35.437 ± 1.960%	70.443 ± 4.274%	7.047 ± 0.374%	97.33%	96.50%	96.16%	0.05%	0.07%	0.07%		
CCCCCCCCOC(=O)OC(C)OC(=O)C1CCn2c(C(=O)c3ccccc3)ccc21 (stereo not drawn) [N26]	177 min			0%	100%	3.89 ± 0.61%	95.48 ± 1.56%	8.60 ± 0.33%	89.20 ± 1.67%	24.34 ± 0.90%	68.99 ± 1.45%							n-octanol is more toxic	Content of ketorolac % ([5]; 1 min): 0%; Content of the compound % ([5]; 1 min): 100%
